Data set [1] relates to brown adipose tissue precursor cells (UCP1). The data set is described as follows: BAT differentiation: UCP1 protein by Western blot in BAT precursor cells. Format: cell-based, mice. To be noted: 7 days. As to the method:
Precursors of BAT are isolated from the interscapular adipose pad of either normal or diabetic mice and cultured in vitro as described below based on the modifications recited in Petrovic N, Shabalina I G, Timmons J A, Cannon B, Nedergaard J. Am. J. Physiol. Endocrinol. Metab. 295:E287-E296, 2008, hereby incorporated by reference.
The brown fat pads are pooled and minced, digested for 45 minutes in isolation buffer containing 0.15% (wt/vol) collagenase. The cell suspension is filtered through a 100 un nylon filter and centrifuged at 200×g for 5 minutes. The pellet containing the preadipocytes is resuspended in 1.2 ml/animal of DMEM containing 10% FBS, 10 mM HEPES, 25 μg/ml sodium ascorbate, 100 U/ml penicillin, and 100 μg/ml streptomycin. The resuspended preadipocytes are distributed into 6 well plates and grown at 37° C. in an atmosphere of 10% CO2 in air with 80% humidity. The medium is changed on the first day and then every second day until confluent.
Cells are then treated with the compounds, compound salts, or co-crystals thereof being assayed for BAT differentiation. This treatment can occur simultaneously with, after, or before strategies to increase intracellular cyclic nucleotides. The development of the BAT phenotype is assessed by direct measure of the uncoupling protein 1 (UCP1), which is emblematic of brown adipose cells.
Following treatment of the cells, the growth medium is aspirated, rinsed with PBS, and lysed with KHM buffer containing 1% Igepal CA-630, and a protease inhibitor cocktail. The lysate is centrifuged at 8,000×g for 5 minutes (4° C.), the supernatant containing the cell lysate is collected and total protein analyzed using the BCA method. 20 μg/lane of cell lysate is run on 10-20% Tris glycine gels under reducing conditions and the proteins transferred to PVDF membranes. Western blotting is conducted using UCP1 polyclonal 1° antibody, an HRP conjugated 2° antibody, and imaged using enhanced chemiluminescence reagents and imaging film. Densitometry is conducted on the scanned films using ImageJ software and analyzed using GraphPad Prism software.
In general terms: Immunoblotting shows a protein as a band on a membrane.

The next data set deals with PGC-1α. Nature of the data set: Expression of PGC-1α mRNA in precursor BAT cells with norepinephrine (quantitative PCR). The class given is cell-based, mice. To be noted: for PGC-1α message (mRNA): 3 μM compound for seven days, then 1 μM norepinephrine for 2 hours. As to the method:
Another example of the ability of augmented signaling between cyclic nucleotides and compounds of Formula I is shown by the effect on expression of PGC-1α, a known regulator of mitochondrial biogenesis. Increased numbers of mitochondria are predictive of utility for the reduction of body weight.
Precursor BAT cells were isolated as described above and treated with or without 3 μM compounds: 1.] Compound A: 5-(4-(2-(5-ethylpyridin-2-yl)-2-oxoethoxy)benzyl)-1,3-thiazolidine-2,4-dione; 2.] Compound F: 5-((4-(2R)-2-(5-ethylpyridin-2-yl)-2-hydroxyethoxyl)benzyl)-1,3-thiazolidine-2,4-dione; or 3.] Compound G: 5-(4-(2-(3-methoxyphenyl)-2-oxoethoxy)benzyl)-1,3-thiazolidine-2,4-dione for seven days followed by treatment with 1 μM norepinephrine for 2 hours. Total RNA was isolated from the cells and the RNA message (mRNA) for PGC-1α was measured by quantitative polymerase chain reactions.

Data set [2] can be described thus: AUC of compound related materials after oral dosing of Compound G forms. Format: in vivo. As to conditions: cynomolgus monkeys, 250 mg free acid equivalents, formulated tablets. As to the method: Referring to FIG. 9, the area under the curve (AUC) of compound related materials was compared following dosing of 250 mg of Compound G as powder in capsules of free acid (PIC), formulated tablets of micronized free acid, or formulated tablets of the Na or K salt of […] given at the same free acid equivalents. (N=4 cynomolgus monkeys). The formulated, compressed tablet also contained in each case approximately 40.5% lactose, 16.8% microcrystalline cellulose, 1.9% Croscarmellose sodium, 0.5% colloidal silicon dioxide, and 0.9% magnesium stearate.

Another data set has as its system diabetic KKAy mouse. Nature of the data set: Blood glucose lowering in the diabetic KKAy mouse. Format: in vivo. To be noted: diabetic KKAy mice, gavage once daily, glucose measured after 4 daily doses. On the procedure: In these experiments, free base or sodium salt was given to diabetic KKAy mice (N=6) and blood glucose was measured after 4 days of daily treatment at the doses indicated. KKAy mice, 8-12 weeks of age, were given the doses of the compounds according to the dosages on the X axis of FIG. 10. The compounds were given by gavage once daily at […]. On the fifth day (after 4 daily doses at the levels show) a blood sample was taken to measure plasma glucose.

A short description of data set [3]: Bioavailability of sodium salt of Compound A, oral capsule versus iv injection. The class given is in vivo. As to conditions: male cynomolgus monkeys, oral gavage, 90 mg free base equivalents in capsules, absolute availability versus iv. As to the method:
The monkeys fasted overnight and were dosed by oral gavage washed down with 10 ml tap water. Blood samples were taken at 0.25, 0.5, 1, 2, 3, 4, 6, 9, 12, 24, and 48 hours after a single dosage was administered and assayed for drug related materials with a LCMS assay using an internal standard. 90 mg of drug was put in 00 gelatin capsules containing 90 mg of free base equivalents. This was compared to an iv injection of 2 ml/kg and 45 mg of free base solution in 50% hydroxypropyl b-cyclodextran. The absolute availability versus an iv injection was determined for both parent compound and major metabolite.

`CCc1ccc([C@@H](F)COc2ccc(CC3SC(=O)NC3=O)cc2)nc1` (stereo partly drawn) [Compound E, 5-(4-((R)-2-(5-ethylpyridin-2-yl)-2-fluoroethoxy)benzyl)thiazolidine-2,4-dione]: the “amount of UCP1 (Western blot)” value in data set [1] (3 to 10 μM) is “dose-dependent increase”.

`CCc1ccc([C@H](F)COc2ccc(CC3SC(=O)NC3=O)cc2)nc1` (stereo partly drawn) [Compound D, 5-(4-((S)-2-(5-ethylpyridin-2-yl)-2-fluoroethoxy)benzyl)thiazolidine-2,4-dione]: the “amount of UCP1 (Western blot)” value in data set [1] (3 to 10 μM) is given as “dose-dependent increase”.

Regarding `COc1cccc([C@H](F)COc2ccc(CC3SC(=O)NC3=O)cc2)c1` (stereo partly drawn) [Compound B, 5-(4-((S)-2-fluoro-2-(3-methoxyphenyl)ethoxy)benzyl)thiazolidine-2,4-dione], in data set [1] (0.1 to 3 μM), the “amount of UCP1 (Western blot)” value is “dose-dependent increase”.

On to `CCc1ccc(C(=O)COc2ccc(CC3SC(=O)NC3=O)cc2)nc1` (centres unmarked) [Compound A, 5-{4-[2-(5-ethylpyridin-2-yl)-2-oxoethoxy]benzyl}-1,3-thiazolidine-2,4-dione], for which the “amount of UCP1 (Western blot)” value in data set [1] (0.1 to 10 μM) is given as “dose-dependent increase”. The “PGC-1α message (mRNA)” value in the data set with PGC-1α is “an increase in PGC-1α message was observed”.

Consider `COc1cccc(C(=O)COc2ccc(CC3SC(=O)[N-]C3=O)cc2)c1.[K+]` (centres unmarked) [potassium salt of Compound G, Potassium 5-{4-[2-(3-methoxyphenyl)-2-oxoethoxy]benzyl}-2,4-dioxo-1,3-thiazolidin-3-ide], for which the “bioavailability (AUC of compound related materials) versus free acid counterparts” value in data set [2] is “significantly higher bioavailability”.

On to `COc1cccc(C(=O)COc2ccc(CC3SC(=O)[N-]C3=O)cc2)c1.[Na+]` (centres unmarked) [sodium salt of Compound G, Sodium 5-{4-[2-(3-methoxyphenyl)-2-oxoethoxy]benztl}-2,4-dioxo-1,3-thiazolidin-3-ide], for which the “bioavailability (AUC of compound related materials) versus free acid counterparts” value in data set [2] was “significantly higher bioavailability”.

Regarding `COc1cccc(C(=O)COc2ccc(CC3SC(=O)NC3=O)cc2)c1` (centres unmarked) [Compound G, 5-{4-[2-(3-methoxyphenyl)-2-oxoethoxy]benzyl}-1,3-thiazolidine-2,4-dione], in the data set on PGC-1α, the “PGC-1α message (mRNA)” value is “an increase in PGC-1α message was observed”.

Turning to `COc1cccc([C@@H](F)COc2ccc(CC3SC(=O)NC3=O)cc2)c1` (stereo partly drawn) [Compound C, 5-(4-((R)-2-fluoro-2-(3-methoxyphenyl)ethoxy)benzyl)thiazolidine-2,4-dione], the “amount of UCP1 (Western blot)” value in data set [1] (0.1 to 3 μM) was “dose-dependent increase”.

As for `CCc1ccc([C@@H](O)COc2ccc(CC3SC(=O)NC3=O)cc2)nc1` (stereo partly drawn) [Compound F, 5-((4-(2R)-2-(5-ethylpyridin-2-yl)-2-hydroxyethoxyl)benzyl)-1,3-thiazolidine-2,4-dione], the “PGC-1α message (mRNA)” value with PGC-1α is “an increase in PGC-1α message was observed”.

Consider `NC[C@H](O)c1ccc(O)c(O)c1` [norepinephrine, reference compound], for which, in the data set on PGC-1α (norepinephrine alone, 1 μM for 2 hours, absence of compound (control)), the “PGC-1α mRNA” value was “did not produce an increase”.

As for `CCc1ccc(C(=O)COc2ccc(CC3SC(=O)[N-]C3=O)cc2)nc1.[Na+]` (centres unmarked) [sodium salt of Compound A, Sodium 5-{4-[2-(5-ethylpyridin-2-yl)-2-oxoethoxy]benztl}-2,4-dioxo-1,3-thiazolidin-3-ide], the lowering blood glucose entry with diabetic KKAy mouse is “excellent dose response”. Besides, in data set [3], the “bioavailability of major metabolite versus free base counterpart” value was “significantly higher bioavailability” and the “bioavailability of parent compound versus free base counterpart” value was “significantly higher bioavailability”.

The record behind these values is patent US20120316138A1, “PPAR-SPARING THIAZOLIDINEDIONES AND COMBINATIONS FOR THE TREATMENT OF OBESITY AND OTHER METABOLIC DISEASES” (METABOLIC SOLUTIONS DEVELOPMENT COMPANY, LLC, priority 2009, published 2012).
